According to PubChem BioAssay (NCI):
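Interpolation was linear, between the two tested concentrations surrounding the appropriate level; five concentrations were tested over 48 hours in 96-well plates. TGI denotes the concentration required for complete inhibition of growth.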

What was measured:
Assay in all cases: NCI tumour cell line growth inhibition, 48 h
HCT-116 colon = test system: HCT-116 colon
IGROV1 ovarian = test system: IGROV1 ovarian
SF-539 CNS = test system: SF-539 CNS
SF-268 CNS = test system: SF-268 CNS
SNB-75 CNS = test system: SNB-75 CNS
SF-295 CNS = test system: SF-295 CNS
EKVX NSCLC = test system: EKVX NSCLC
HS 578T breast = test system: HS 578T breast
CCRF-CEM leukemia = test system: CCRF-CEM leukemia
UACC-62 melanoma = test system: UACC-62 melanoma
LOX IMVI melanoma = test system: LOX IMVI melanoma
TK-10 renal = test system: TK-10 renal
HL-60(TB) leukemia = test system: HL-60(TB) leukemia
OVCAR-3 ovarian = test system: OVCAR-3 ovarian
HOP-62 NSCLC = test system: HOP-62 NSCLC
T-47D breast = test system: T-47D breast
786-0 renal = test system: 786-0 renal
DU-145 prostate = test system: DU-145 prostate
KM12 colon = test system: KM12 colon
SK-MEL-28 melanoma = test system: SK-MEL-28 melanoma
CAKI-1 renal = test system: CAKI-1 renal
MDA-N = test system: MDA-N
SK-OV-3 ovarian = test system: SK-OV-3 ovarian
NCI-H522 lung = test system: NCI-H522 lung
ACHN renal = test system: ACHN renal
M14 melanoma = test system: M14 melanoma
MDA-MB-231 breast = test system: MDA-MB-231 breast
HOP-92 NSCLC = test system: HOP-92 NSCLC
MCF7 breast = test system: MCF7 breast
MDA-MB-435 = test system: MDA-MB-435
MALME-3M melanoma = test system: MALME-3M melanoma
SR leukemia = test system: SR leukemia
OVCAR-4 ovarian = test system: OVCAR-4 ovarian
OVCAR-5 ovarian = test system: OVCAR-5 ovarian
SK-MEL-5 melanoma = test system: SK-MEL-5 melanoma
SNB-19 CNS = test system: SNB-19 CNS
COLO 205 colon = test system: COLO 205 colon
NCI-H23 lung = test system: NCI-H23 lung
K-562 leukemia = test system: K-562 leukemia
PC-3 prostate = test system: PC-3 prostate
NCI-H226 lung = test system: NCI-H226 lung
A549 NSCLC = test system: A549 NSCLC
UO-31 renal = test system: UO-31 renal
SK-MEL-2 melanoma = test system: SK-MEL-2 melanoma
HCT-15 colon = test system: HCT-15 colon
RPMI-8226 leukemia = test system: RPMI-8226 leukemia
OVCAR-8 ovarian = test system: OVCAR-8 ovarian
HT29 colon = test system: HT29 colon
SN12C renal = test system: SN12C renal
NCI/ADR-RES ovarian = test system: NCI/ADR-RES ovarian
SW-620 colon = test system: SW-620 colon
MOLT-4 leukemia = test system: MOLT-4 leukemia
U251 CNS = test system: U251 CNS
A498 renal = test system: A498 renal

Question: For `O=C(C=P(c1ccccc1)(c1ccccc1)c1ccccc1)c1ccccc1-c1ccccc1C(=O)C=P(c1ccccc1)(c1ccccc1)c1ccccc1`, which TGI (HCT-116 colon) is on record?
Answer: 259 nM

Question: What about the TGI (IGROV1 ovarian) of the same compound?
Answer: 1360 nM

Question: And the TGI (SF-539 CNS)?
Answer: 384 nM

Question: What about the TGI (SF-268 CNS) of the same compound?
Answer: 1610 nM

Question: And the TGI (SNB-75 CNS)?
Answer: 115 nM

Question: And the TGI (SF-295 CNS)?
Answer: 49.6 nM

Question: What about the TGI (EKVX NSCLC) of the same compound?
Answer: 910 nM

Question: What about the TGI (HS 578T breast) of the same compound?
Answer: 317 nM

Question: And the TGI (CCRF-CEM leukemia)?
Answer: 843 nM

Question: And the TGI (UACC-62 melanoma)?
Answer: 1330 nM

Question: What about the TGI (LOX IMVI melanoma) of the same compound?
Answer: 71.6 nM

Question: What about the TGI (TK-10 renal) of the same compound?
Answer: 182 nM

Question: What about the TGI (HL-60(TB) leukemia) of the same compound?
Answer: < 19.5 nM

Question: And the TGI (OVCAR-3 ovarian)?
Answer: < 12 nM

Question: What about the TGI (HOP-62 NSCLC) of the same compound?
Answer: 507 nM

Question: What about the TGI (T-47D breast) of the same compound?
Answer: 2080 nM

Question: What about the TGI (786-0 renal) of the same compound?
Answer: 1250 nM

Question: And the TGI (DU-145 prostate)?
Answer: 1280 nM

Question: And the TGI (KM12 colon)?
Answer: 20 nM

Question: And the TGI (SK-MEL-28 melanoma)?
Answer: 2030 nM

Question: And the TGI (CAKI-1 renal)?
Answer: 1100 nM

Question: What about the TGI (MDA-N) of the same compound?
Answer: 1100 nM

Question: And the TGI (SK-OV-3 ovarian)?
Answer: 366 nM

Question: And the TGI (NCI-H522 lung)?
Answer: 1780 nM

Question: And the TGI (ACHN renal)?
Answer: 1120 nM

Question: What about the TGI (M14 melanoma) of the same compound?
Answer: 1420 nM

Question: What about the TGI (MDA-MB-231 breast) of the same compound?
Answer: 158 nM

Question: And the TGI (HOP-92 NSCLC)?
Answer: 54.4 nM

Question: What about the TGI (MCF7 breast) of the same compound?
Answer: 39.5 nM

Question: What about the TGI (MDA-MB-435) of the same compound?
Answer: 1110 nM

Question: And the TGI (MALME-3M melanoma)?
Answer: < 20.8 nM

Question: What about the TGI (SR leukemia) of the same compound?
Answer: 66.7 nM

Question: And the TGI (OVCAR-4 ovarian)?
Answer: 1630 nM

Question: And the TGI (OVCAR-5 ovarian)?
Answer: 585 nM

Question: What about the TGI (SK-MEL-5 melanoma) of the same compound?
Answer: 26.3 nM

Question: And the TGI (SNB-19 CNS)?
Answer: 1580 nM

Question: What about the TGI (COLO 205 colon) of the same compound?
Answer: 22.2 nM

Question: What about the TGI (NCI-H23 lung) of the same compound?
Answer: 89.9 nM

Question: And the TGI (K-562 leukemia)?
Answer: 90.5 nM

Question: And the TGI (PC-3 prostate)?
Answer: 1230 nM

Question: With `CCC(C)C(NC(=O)c1cccc2c(=O)c3ccccc3[nH]c12)C(=O)O` (stereo not given) as the compound, how does the TGI (NCI-H226 lung) read?
Answer: > 100000 nM

Question: And the TGI (HCT-116 colon)?
Answer: > 100000 nM

Question: And the TGI (IGROV1 ovarian)?
Answer: > 100000 nM

Question: And the TGI (A549 NSCLC)?
Answer: > 100000 nM

Question: And the TGI (UO-31 renal)?
Answer: > 100000 nM

Question: What about the TGI (SF-268 CNS) of the same compound?
Answer: > 100000 nM

Question: What about the TGI (SK-MEL-2 melanoma) of the same compound?
Answer: > 100000 nM

Question: What about the TGI (SNB-75 CNS) of the same compound?
Answer: > 100000 nM

Question: And the TGI (SF-295 CNS)?
Answer: > 100000 nM

Question: What about the TGI (EKVX NSCLC) of the same compound?
Answer: > 100000 nM

Question: What about the TGI (HS 578T breast) of the same compound?
Answer: > 100000 nM

Question: What about the TGI (CCRF-CEM leukemia) of the same compound?
Answer: > 100000 nM

Question: And the TGI (UACC-62 melanoma)?
Answer: > 100000 nM

Question: And the TGI (HCT-15 colon)?
Answer: > 100000 nM

Question: And the TGI (LOX IMVI melanoma)?
Answer: > 100000 nM

Question: And the TGI (TK-10 renal)?
Answer: > 100000 nM

Question: And the TGI (RPMI-8226 leukemia)?
Answer: > 100000 nM

Question: And the TGI (OVCAR-8 ovarian)?
Answer: > 100000 nM

Question: What about the TGI (HT29 colon) of the same compound?
Answer: > 100000 nM

Question: What about the TGI (SN12C renal) of the same compound?
Answer: > 100000 nM

Question: And the TGI (NCI/ADR-RES ovarian)?
Answer: > 100000 nM

Question: What about the TGI (SW-620 colon) of the same compound?
Answer: > 100000 nM

Question: And the TGI (OVCAR-3 ovarian)?
Answer: > 100000 nM

Question: And the TGI (HOP-62 NSCLC)?
Answer: > 100000 nM

Question: What about the TGI (786-0 renal) of the same compound?
Answer: > 100000 nM

Question: And the TGI (DU-145 prostate)?
Answer: > 100000 nM

Question: What about the TGI (KM12 colon) of the same compound?
Answer: > 100000 nM

Question: What about the TGI (SK-MEL-28 melanoma) of the same compound?
Answer: > 100000 nM

Question: And the TGI (MOLT-4 leukemia)?
Answer: > 100000 nM

Question: What about the TGI (MDA-N) of the same compound?
Answer: > 100000 nM

Question: And the TGI (SK-OV-3 ovarian)?
Answer: > 100000 nM

Question: And the TGI (NCI-H522 lung)?
Answer: > 100000 nM

Question: And the TGI (ACHN renal)?
Answer: > 100000 nM

Question: And the TGI (M14 melanoma)?
Answer: > 100000 nM

Question: What about the TGI (MDA-MB-231 breast) of the same compound?
Answer: > 100000 nM

Question: And the TGI (HOP-92 NSCLC)?
Answer: > 100000 nM

Question: And the TGI (MCF7 breast)?
Answer: > 100000 nM

Question: What about the TGI (MDA-MB-435) of the same compound?
Answer: > 100000 nM

Question: What about the TGI (MALME-3M melanoma) of the same compound?
Answer: > 100000 nM

Question: And the TGI (SR leukemia)?
Answer: > 100000 nM

Question: What about the TGI (U251 CNS) of the same compound?
Answer: > 100000 nM

Question: And the TGI (OVCAR-4 ovarian)?
Answer: > 100000 nM

Question: What about the TGI (OVCAR-5 ovarian) of the same compound?
Answer: > 100000 nM

Question: And the TGI (SK-MEL-5 melanoma)?
Answer: > 100000 nM

Question: What about the TGI (SNB-19 CNS) of the same compound?
Answer: > 100000 nM

Question: What about the TGI (COLO 205 colon) of the same compound?
Answer: > 100000 nM

Question: And the TGI (NCI-H23 lung)?
Answer: > 100000 nM

Question: What about the TGI (K-562 leukemia) of the same compound?
Answer: > 100000 nM

Question: And the TGI (A498 renal)?
Answer: > 100000 nM

Question: What about the TGI (PC-3 prostate) of the same compound?
Answer: > 100000 nM
